Laboratory results as given in US20190365675A1, “COMPOSITIONS FOR THE PREVENTION AND/OR TREATMENT OF ALCOHOL USE DISORDERS” (SERVICIO ANDALUZ DE SALUD, priority 2016, published 2019).

Assays:
[1] = tested on: TLR4; experiment: TLR4 mRNA and protein expression in frontal cortex after ethanol intoxication; assay type: in vivo, Wistar rats; details: 2-4 h after last ethanol, OEA pre-treatment
Protocol: The animals were treated with intragastric (i.g.) ethanol 3 times a day using an i.g. cannula (16G needle, Fisher Scientific, Waltham, Mass., USA), following a protocol based on a slightly modified standard 4-day alcohol intoxication pattern (Bernier et al., 2002a, b) (FIG. 1A). The ethanol doses were administered every 8 h for a total time of 4 days. The rats treated with ethanol received an initial loading dose of 5 g/kg of ethanol in a 30% solution (w/v) and then a maximum maintenance dose of 3 g/kg, which were determined based on blood ethanol levels (BEL). This repeated standard alcohol intoxication paradigm kept BEL intoxication relatively constant in a range of sedation/ataxia (190 to 430 mg/dl, Table 3), according to the 6-point alcohol intoxication behavior scale (Majchrowicz, 1975). The mean dose of ethanol/rat/day (days 1-4) was 7.06 g/kg, similar to other studies (Obernier et al., 2002a, b). […] The autoradiograph was quantified by densitometry (NIH ImageJ® software, National Biosciences, Lincoln, Nebr. USA) and expressed as optical density (OD). […] The quantitative changes in mRNA levels were estimated by means of RT-PCR, carried out in the presence of the SYBR green primer using a 20-L reaction in a Rotor-Gene (Corbett Research®, Mortlake, NSW, Australia). […]

[2] = tested on: caspase-3; experiment: Caspase-3 mRNA, protein and activity (fluorometric assay) in frontal cortex after ethanol intoxication; assay type: in vivo, Wistar rats; details: OEA pre-treatment
Protocol: The animals were treated with intragastric (i.g.) ethanol 3 times a day using an i.g. cannula (16G needle, Fisher Scientific, Waltham, Mass., USA), following a protocol based on a slightly modified standard 4-day alcohol intoxication pattern (Bernier et al., 2002a, b) (FIG. 1A). The ethanol doses were administered every 8 h for a total time of 4 days. The rats treated with ethanol received an initial loading dose of 5 g/kg of ethanol in a 30% solution (w/v) and then a maximum maintenance dose of 3 g/kg, which were determined based on blood ethanol levels (BEL). This repeated standard alcohol intoxication paradigm kept BEL intoxication relatively constant in a range of sedation/ataxia (190 to 430 mg/dl, Table 3), according to the 6-point alcohol intoxication behavior scale (Majchrowicz, 1975). The mean dose of ethanol/rat/day (days 1-4) was 7.06 g/kg, similar to other studies (Obernier et al., 2002a, b). OEA (5 mg/kg, i.p., except initial dose of 10 mg/kg i.p.; synthesized as described in Giuffrida et al., 2000) was dissolved in the vehicle (5% Tween-80 in saline solution) and injected 10 minutes before each of the administrations of ethanol by an intragastric gavage. The anti-inflammatory activity of OEA at 10 mg/kg per intraperitoneal route in the frontal cortex before the injection of LPS (Sayd et al., 2014) was previously referred to. In this study, OEA is repeatedly injected as a pre-treatment before each administration of ethanol. The doses of OEA chosen in this study are in the range of doses tested as being pharmacologically active (5-20 mg/kg, i.p.) (Bilbao et al., 2015). […] The autoradiograph was quantified by densitometry (NIH ImageJ® software, National Biosciences, Lincoln, Nebr. USA) and expressed as optical density (OD). […] The quantitative changes in mRNA levels were estimated by means of RT-PCR, carried out in the presence of the SYBR green primer using a 20-L reaction in a Rotor-Gene (Corbett Research®, Mortlake, NSW, Australia). […] Caspase-3 activity was determined using a fluorometric assay kit (Abnova®, Taiwan) according to the manufacturer's protocol. […]

CCCCCCCC/C=C\CCCCCCCC(=O)NCCO [OEA, oleoylethanolamide]
Ethanol-induced TLR4 protein expression [1]: reduce | Ethanol-induced overexpression of TLR-4 mRNA [1]: reduce | Alcohol-induced overexpression of caspase-3 mRNA [2]: unable to prevent | Ethanol-induced overexpression of caspase-3 protein [2]: prevented | Ethanol-induced increase in activity of caspase-3 ([2]; fluorometric assay): reverted
